Test results published in patent US12011444B2, “N-substituted indole derivatives as PGE2 receptor modulators” (Idorsia Pharmaceuticals Ltd, priority 2015, dated 2024).

Assays:
EP4 = EP4 (Homo sapiens (Human), UniProt P35408); test: hEP4 cAMP assay (BT549 breast cancer cells, HTRF cAMP); type: cell-based; settings: antagonistic activity; mean values where measured multiple times
Protocol: Plate is pre-incubated 45 minutes at room temperature. Subsequently, 2.5 microliters of PGE2 (final conc. 6 nM) are transferred into the assay plate. Plate is incubated 30 minutes at room temperature.

EP2 = EP2 (Homo sapiens (Human), UniProt P43116);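 also: antagonism of PGE2-stimulated cAMP accumulation in SF295 human glioblastoma cells with endogenous EP2, cAMP read by HTRF, expressed relative to DMSO control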
PTGER2 (EP2) = PTGER2 (EP2) (Homo sapiens (Human), UniProt P43116); test: hEP2 b-arrestin assay (PathHunter HEK 293 PTGER2 b-arrestin cells); type: cell-based; settings: antagonistic activity on hEP2; mean where measured multiple times
How it was run: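 HEK293 cells expressing ProLink-tagged EP2 and EA-fused β-arrestin 2 (enzyme fragment complementation) were seeded 24 h, pre-incubated with compound 15 min at 37 °C, then stimulated with 5 μM PGE2 (final) for 120 min.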

PTRGER4 (EP4) = PTRGER4 (EP4) (Homo sapiens (Human), UniProt P35408); test: hEP4 b-arrestin assay (PathHunter HEK 293 PTGER4 b-arrestin cells); type: cell-based; settings: antagonistic activity on hEP4; mean where measured multiple times
How it was run: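 Stably transfected HEK293 cells carrying EP4–ProLink and β-arrestin 2–EA (β-gal fragment complementation), pre-incubated with compound 15 min at 37 °C, then stimulated with PGE2 (20 nM final) for 120 min at 37 °C. Chemiluminescence read after 1 h detection reagent at room temperature; activity per concentration expressed as percent of DMSO control.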

EP4, sequence (P35408 whole entry): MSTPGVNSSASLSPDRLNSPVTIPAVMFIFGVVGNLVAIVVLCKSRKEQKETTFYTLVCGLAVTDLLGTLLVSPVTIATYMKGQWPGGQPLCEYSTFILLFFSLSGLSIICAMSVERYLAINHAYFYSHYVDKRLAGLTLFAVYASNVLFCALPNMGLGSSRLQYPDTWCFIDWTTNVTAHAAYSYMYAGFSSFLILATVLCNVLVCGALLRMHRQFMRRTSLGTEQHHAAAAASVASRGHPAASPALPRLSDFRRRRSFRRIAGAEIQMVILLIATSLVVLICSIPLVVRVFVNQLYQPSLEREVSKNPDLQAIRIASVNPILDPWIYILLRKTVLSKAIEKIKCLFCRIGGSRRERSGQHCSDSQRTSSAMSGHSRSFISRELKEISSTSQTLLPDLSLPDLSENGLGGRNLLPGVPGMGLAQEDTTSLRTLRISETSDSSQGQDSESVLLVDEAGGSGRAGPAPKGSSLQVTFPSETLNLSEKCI
PTRGER4 (EP4), sequence (P35408 whole entry, looked up, the tested form may be a part): as the sequence (P35408 whole entry) above
EP2, sequence (P43116 whole entry): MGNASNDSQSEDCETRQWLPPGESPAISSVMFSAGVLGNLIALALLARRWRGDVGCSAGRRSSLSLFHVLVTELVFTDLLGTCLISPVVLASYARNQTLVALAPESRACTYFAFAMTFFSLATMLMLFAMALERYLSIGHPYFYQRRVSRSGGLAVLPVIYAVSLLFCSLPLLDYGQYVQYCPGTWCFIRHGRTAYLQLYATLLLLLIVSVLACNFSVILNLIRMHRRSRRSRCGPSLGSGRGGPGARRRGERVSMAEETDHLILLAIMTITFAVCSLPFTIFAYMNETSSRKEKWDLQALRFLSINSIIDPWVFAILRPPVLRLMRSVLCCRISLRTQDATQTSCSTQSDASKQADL
PTGER2 (EP2), sequence (P43116 whole entry, the tested form may be a part): as the sequence (P43116 whole entry) above

| Structure (SMILES) | IC50 (EP4) [nM] | IC50 (EP2) [nM] | IC50 (PTGER2 (EP2)) [nM] | IC50 (PTRGER4 (EP4)) [nM] |
| --- | --- | --- | --- | --- |
| COc1cc(-c2cc(NCCn3c(C)cc4ccccc43)ncn2)ccc1-c1nnn[nH]1 [Example 746, {6-[3-Methoxy-4-(1H-tetrazol-5-yl)-phenyl]-pyrimidin-4-yl}-[2-(2-methyl-indol-1-yl)-ethyl]-amine] | 869 | 10 |  |  |
| COc1cc(-c2cc(NCCn3c(C)cc4c(F)ccc(F)c43)ncn2)ccc1-c1nnn[nH]1 [Example 747, [2-(4,7-Difluoro-2-methyl-indol-1-yl)-ethyl]-{6-[3-methoxy-4-(1H-tetrazol-5-yl)-phenyl]-pyrimidin-4-yl}-amine] | 318 | 3 |  |  |
| COc1cc(-c2cc(NCCn3c(C)cc4c(C)ccc(F)c43)ncn2)ccc1-c1nnn[nH]1 [Example 748, [2-(7-Fluoro-2,4-dimethyl-indol-1-yl)-ethyl]-{6-[3-methoxy-4-(1H-tetrazol-5-yl)-phenyl]-pyrimidin-4-yl}-amine] | 170 | 70 |  |  |
| COc1cc(-c2ccc(-c3cc(NCCn4c(C)cc5c(OC)cc(F)cc54)ncn3)cc2)ncn1 [Example 749, [2-(6-Fluoro-4-methoxy-2-methyl-indol-1-yl)-ethyl]-{6-[4-(6-methoxy-pyrimidin-4-yl)-phenyl]-pyrimidin-4-yl}-amine] | 425 | 81 |  |  |
| Cc1cc(F)cc2c1cc(C)n2CCNc1cc(-c2ccc(C(=O)O)c(C3CC3)c2)ncn1 [compound 354] |  |  | 32 | 772 |
| Cc1ccc(F)c2c1cc(C)n2CCNc1cc(-c2ccc3ncccc3c2)ncn1 [compound 355] |  |  | 48 | 134 |
| CCCNc1cc(-c2cc(NCCn3c(C)cc4c(C)ccc(F)c43)ncn2)ccc1C(=O)O [compound 356, 4-{6-[2-(7-Fluoro-2,4-dimethyl-indol-1-yl)-ethylamino]-pyrimidin-4-yl}-2-propylamino-benzoic acid] |  |  | 15 | 165 |
| Cc1ccc(F)c2c1cc(C)n2CCNc1cc(-c2ccc3ccncc3c2)ncn1 [compound 357] |  |  | 54 | 272 |
| CCOc1cc(-c2cc(NCCn3c(C)cc4c(OC)ccc(F)c43)ncn2)ccc1CNC [compound 358] |  |  | 369 | 731 |
| COc1ccc(F)c2c1cc(C)n2CCNc1cc(-c2cc(F)c(S(N)(=O)=O)c(F)c2)ncn1 [compound 359, 2,6-Difluoro-4-{6-[2-(7-fluoro-4-methoxy-2-methyl-indol-1-yl)-ethylamino]-pyrimidin-4-yl}-benzenesulfonamide] |  |  | 34 | 500 |
| CNS(=O)(=O)c1ccc(-c2cc(NCCn3c(C)cc4c(OC)ccc(F)c43)ncn2)cc1C [compound 360] |  |  | 75 | 372 |
| COc1ccc(F)c2c1cc(C)n2CCNc1cc(-c2ccc(C(=O)NCCO)cc2)ncn1 [compound 361] |  |  | 67 | 678 |
| CCNc1cc(-c2cc(NCCn3c(C)cc4c(OC)cccc43)ncn2)cc(Cl)c1C(=O)O [compound 362, 2-Chloro-6-ethylamino-4-{6-[2-(4-methoxy-2-methyl-indol-1-yl)-ethylamino]-pyrimidin-4-yl}-benzoic acid] |  |  | 3 | 281 |
| Cc1cc2ccccc2n1CCNc1cc(-c2ccc(-c3nnc(N)s3)cc2)ncn1 [compound 363] |  |  | 1 | 474 |
| CCOc1cc(-c2cc(NCCn3c(C)cc4c(OC)c(F)cc(F)c43)ncn2)ccc1C(=O)O [compound 364] |  |  | 84 | 543 |
| CCOc1cc(-c2cc(NCCn3c(C)cc4c(OC)ccc(Cl)c43)ncn2)cc(C)c1C(=O)O [compound 365, 4-{6-[2-(7-Chloro-4-methoxy-2-methyl-indol-1-yl)-ethylamino]-pyrimidin-4-yl}-2-ethoxy-6-methyl-benzoic acid] |  |  | 25 | 409 |
| CCOc1cc(-c2cc(NCCn3c(C)cc4c(OC)ccc(F)c43)ncn2)cc(C)c1C(=O)O [compound 366, 2-Ethoxy-4-{6-[2-(7-fluoro-4-methoxy-2-methyl-indol-1-yl)-ethylamino]-pyrimidin-4-yl}-6-methyl-benzoic acid] |  |  | 22 | 262 |
| Cc1cc2c(F)ccc(F)c2n1CCNc1cc(-c2ccc(C(=O)O)c(CCC(C)C)c2)ncn1 [compound 367, 4-{6-[2-(4,7-Difluoro-2-methyl-indol-1-yl)-ethylamino]-pyrimidin-4-yl}-2-(3-methyl-butyl)-benzoic acid] |  |  | 14 | 961 |
| Cc1ccc(Cl)c2c1cc(C)n2CCNc1cc(-c2ccc(C(=O)O)c(SCC(C)C)c2)ncn1 [compound 368] |  |  | 63 | 360 |
| Cc1ccc(F)c2c1cc(C)n2CCNc1cc(-c2ccc(C(=O)O)c(CCC(C)C)c2)ncn1 [compound 369] |  |  | 87 | 238 |
| Cc1cc2c(Cl)ccc(Cl)c2n1CCNc1cc(-c2ccc(C(=O)O)c(SCC(C)C)c2)ncn1 [compound 370, 4-{6-[2-(4,7-Dichloro-2-methyl-indol-1-yl)-ethylamino]-pyrimidin-4-yl}-2-isobutylsulfanyl-benzoic acid] |  |  | 35 | 992 |
| CCCSc1cc(-c2cc(NCCn3c(C)cc4c(C)c(F)cc(Cl)c43)ncn2)ccc1C(=O)O [compound 371] |  |  | 70 | 875 |
| CCCc1cc(-c2cc(NCCn3c(C)cc4cc(OC)cc(F)c43)ncn2)cc(Cl)c1C(=O)O [compound 372] |  |  | 260 | 381 |

| Structure (SMILES) | IC50 (EP4) [nM] | IC50 (EP2) [nM] | IC50 (PTGER2 (EP2)) [nM] | IC50 (PTRGER4 (EP4)) [nM] |
| --- | --- | --- | --- | --- |
| CCCc1cc(-c2cc(NCCn3c(C)cc4c(OC)c(F)cc(F)c43)ncn2)ccc1C(=O)O [compound 373] |  |  | 79 | 183 |
| CCNC(=O)Nc1ccc(-c2cc(NCCn3c(C)cc4c(C)ccc(F)c43)ncn2)cc1OC [compound 374] |  |  | 53 | 67 |
| CCNC(=O)Nc1ccc(-c2cc(NCCn3c(C)cc4c(OC)cccc43)ncn2)cc1OC [compound 375, 1-Ethyl-3-(2-methoxy-4-{6-[2-(4-methoxy-2-methyl-indol-1-yl)-ethylamino]-pyrimidin-4-yl}-phenyl)-urea] |  |  | 20 | 57 |
| COc1ccc(F)c2c1cc(C)n2CCNc1cc(-c2ccc3nccnc3c2)ncn1 [compound 376] |  |  | 50 | 184 |
| CCOc1cc(-c2cc(NCCn3c(C)cc4c(OC)ccc(F)c43)ncn2)ccc1S(N)(=O)=O [compound 377] |  |  | 51 | 697 |
| Cc1ccc(F)c2c1cc(C)n2CCNc1cc(-c2ccc(C3(C(=O)O)CC3)c(F)c2)ncn1 [compound 378] |  |  | 340 | 449 |
| Cc1ccc(F)c2c1cc(C)n2CCNc1cc(-c2ccc(S(N)(=O)=O)c(C(F)(F)F)c2)ncn1 [compound 379] |  |  | 63 | 354 |
| COc1cccc2c1cc(C)n2CCNc1cc(-c2ccc(S(N)(=O)=O)c(C(F)(F)F)c2)ncn1 [compound 380] |  |  | 58 | 677 |
| CCNc1cc(-c2cc(NCCn3c(C)cc4c(OC)ccc(F)c43)ncn2)cc(Cl)c1C(=O)O [compound 381, 2-Chloro-6-ethylamino-4-{6-[2-(7-fluoro-4-methoxy-2-methyl-indol-1-yl)-ethylamino]-pyrimidin-4-yl}-benzoic acid] |  |  | 3 | 84 |
| COc1cc(F)cc2c1cc(C)n2CCNc1cc(-c2ccc(C(=O)O)c(C3CC3)c2)ncn1 [compound 382] |  |  | 27 | 359 |
| COc1ccc(F)c2c1cc(C)n2CCNc1cc(-c2ccc3ccncc3c2)ncn1 [compound 383] |  |  | 17 | 147 |
| COc1ccc(F)c2c1cc(C)n2CCNc1cc(-c2ccc3ncccc3c2)ncn1 [compound 384] |  |  | 13 | 60 |
| COc1ccc(F)c2c1cc(C)n2CCNc1cc(-c2ccc(C3(N)CC3)cc2)ncn1 [compound 385] |  |  | 183 | 468 |
| COc1cccc2c1cc(C)n2CCNc1cc(-c2ccc(C3(C(=O)O)CC3)c(F)c2)ncn1 [compound 386] |  |  | 40 | 559 |
| CNc1nnc(-c2ccc(-c3cc(NCCn4c(C)cc5ccccc54)ncn3)cc2)s1 [compound 387] |  |  | 2 | 556 |
| COc1ccc(Cl)c2c1cc(C)n2CCNc1cc(-c2ccc3c(C(=O)O)n[nH]c3c2)ncn1 [compound 388] |  |  | 34 | 963 |
| COc1ccc(F)c2c1cc(C)n2CCNc1cc(-c2ccc3c(C(=O)O)n[nH]c3c2)ncn1 [compound 389] |  |  | 26 | 734 |
| Cc1cc(F)cc2c1cc(C)n2CCNc1cc(-c2cc(Cl)c(C(=O)O)c(Cl)c2)ncn1 [compound 390] |  |  | 38 | 146 |
| CCOc1cc(-c2cc(NCCn3c(C#N)cc4c(OC)cc(F)cc43)ncn2)sc1C(=O)O [compound 391] |  |  | 2 | 3 |
| CCNc1cc(-c2cc(NCCn3c(C)cc4c(C)ccc(F)c43)ncn2)cc(F)c1C(=O)O [compound 392] |  |  | 7 | 97 |
| CCCc1cc(-c2cc(NCCn3c(C)cc4c(C#N)ccc(F)c43)ncn2)ccc1C(=O)O [compound 393] |  |  | 9 | 745 |
| COc1ccc(F)c2c1cc(C)n2CCNc1cc(-c2ccc(C(=O)O)c([N+](=O)[O-])c2)ncn1 [compound 394] |  |  | 15 | 296 |
| CCOc1cc(-c2cc(NCCn3c(C#N)cc4c(C)cc(F)cc43)ncn2)ccc1C(=O)O [compound 395] |  |  | 24 | 137 |
